# Where a SMILES comes first, the peptide text is derived from it. [ ]: non-standard residue; d: D form.
# Tested on: IL-1R/IL-1RacP
# Test: IL-1β-induced cGMP production in brain tissues ex vivo
# Experimental: For these newly derived peptides, ex vivo experiments were then conducted. Brain tissues were incubated with the peptides and IL-1β and cGMP was measured with a commercial kit (Amersham Bioscience, cGMP assay biotrack™ system). API-101.10 already inhibited 85% of IL-1β-induced cGMP production (10^−6M) and API-101.103 and 101.106 inhibited more than 90% of cGMP production. Thus, removal of the negative charge of the glutamate and removal of the threonine can improve the potency of the antagonist.
structure (smiles),measurement,setting,value
"CC(C)C[C@@H](NC(=O)[C@@H](CCC(=O)O)NC(=O)[C@H](NC(=O)[C@H](NC(=O)[C@@H](Cc1ccc(O)cc1)NC(=O)[C@H](N)CCCNC(=N)N)[C@H](C)O)C(C)C)C(=O)N[C@H](C)C(N)=O [API-101.10, RYTVELA] (H-[dR][dY][dT][dV][dE][dL][dA]-NH2; N-terminus and C-terminus assumed)",inhibition of IL-1β-induced cGMP production,"brain tissues, 10^−6M",85%
same,activity compared with Kineret,data not shown,superior
